Reference: patent US20060211736A1, “GLUTARIMIDE-CONTAINING POLYKETIDE ANALOGS AND METHODS THEREOF” (Wisconsin Alumni Research Foundation, priority 2005, published 2006)

Assays:
[1] = stability in organic solvents and under fermentation condition (HPLC, 1H NMR); format: physicochemical; conditions: in CHCl3, DMSO, MeOH, and MeOH-H2O at 25° C. for 90 days
Procedure: (§1) To verify the identity of the shunt metabolites, purified 4 (30 mg) was incubated in H2O-DMSO (9:1), and the resultant products were isolated and subjected to spectroscopic analysis.
Seed medium (50 mL) in a 250-mL flask was inoculated with spores of S. platensis and incubated on a rotary shaker at 250 rpm and 28° C. for 30 hr. The resultant seed culture (25 mL) was then inoculated into production medium (600 mL containing 70 g/L XAD-16 resins) in a 2-L flask, which was incubated on a rotary shaker at 250 rpm and 28° C. for 2 days. The combined production culture broth (7 L) was filtered through gauze sponges to capture the XAD-16 resins. The resins were washed with Milli-Q H2O, dried at room temperature, and eluted with anhydrous ethanol. The ethanol extract was evaporated under reduced pressure to yield an oily residue. The residue was first analyzed by HPLC-UV (PDA) and LC-ESI-MS to confirm the presence of the various congeners of 110. Although they can survive during fermentation and be stabilized in H2O upon absorption to resins, 110 and its congeners 112-119 undergo rapid rearrangement in aqueous solution. They are stable in most organic solvents such as CHCl3, EtOAc, hexane, and absolute ethanol at room temperature. Consequently, isolation of these metabolites was performed mainly by repeated silica gel flash column chromatography using two different solvent systems (CHCl3/MeOH and EtOAc/hexane).

[2] = tested on: K-ras transformed NIH/3T3 mouse fibroblasts; conditions: 0.4 ∝g/ml; cited from earlier work
[3] = stability in water / H2O-mediated rearrangement (HPLC); format: physicochemical
Procedure: as §1
Large-scale Conversion of 4 to 1, 2, 3 and 5 in H2O. The purity of compound 4 was first analyzed by HPLC showing a single peak (purity >98%) and then confirmed by ^1H NMR spectrum (in CDCl3) showing no detectable contaminant. A solution of 4 (30 mg in 6 ml of DMSO) was then added to 55 ml Milli-Q H2O, and the resultant mixture was incubated at 37° C. for 2 hours. The reaction mixture was evaporated under high vacuo. The residue was subjected to silica gel flash column chromatography eluted with CHCl3-MeOH (from 10:0 to 9.4:0.6) to yield pure 1 (8 mg), 3 (9 mg), and a mixture of 2 and 5. The latter was further resolved by semi-preparative to afford pure 2 (6 mg) and 5 (4 mg). The ESI−MS, ^1H NMR and optical rotation data of compounds 1, 2, 3, and 5 were identical to those obtained from the corresponding compounds isolated from fermentation (the ^13C NMR spectrum of 1 was also measured, which is identical to that of 1 obtained from fermentation).
H2O-mediated rearrangement of 112-114 and 117-119. […]
Regioselective 1,4-reduction to access the reduced NK30424 scaffold. […] The reactions for 203, 209, and 210 were complete in 2, 8, and 12 hrs, respectively, as monitored by HPLC (yields>80%). […]

[4] = tested on: experimental tumors; conditions: efficacy comparable to or better than MTM C; cited from earlier work
[5] = tested on: HCT-116 cells; conditions: same assay conditions for both substances; cited from earlier work

Q: For `CO[C@H]1/C=C/CC/C=C/C(=O)O[C@H]([C@H](C)C(=O)CCCC2CC(=O)NC(=O)C2)/C(C)=C\[C@@H](C)[C@@H]1O` [Compound 1, Migrastatin], which “change of solutions upon HPLC and 1H NMR analyses” value (shortened to “change”) [1] is on record?
A: no detectable change

Q: What does the source list for `CO[C@@H](/C=C/CC/C=C/C(=O)O)[C@@H](O)[C@H](C)/C=C(\C)[C@H](O)[C@H](C)C(=O)CCCC1CC(=O)NC(=O)C1` [Compound 2, Dorrigocin A]?
A: change of solutions upon HPLC and 1H NMR analyses [1]: no detectable change; reduction of the number of foci [2]: 74%

Q: Which “change” value [1] does the source give for `CO[C@@H](/C=C/CC/C=C/C(=O)O)[C@@H](O)[C@H](C)[C@@H](O)/C(C)=C/[C@H](C)C(=O)CCCC1CC(=O)NC(=O)C1` [Compound 3, Dorrigocin B] here?
A: no detectable change

Q: Which “stability in aqueous solution (H2O-mediated rearrangement)” value [3] does the source give for `CO[C@H]1/C=C/CC/C=C/C(=O)O[C@@H](/C(C)=C/[C@H](C)C(=O)CCCC2CC(=O)NC(=O)C2)[C@@H](C)[C@@H]1O` [Compound 4, iso-Migrastatin] here?
A: rapid conversion

Q: With `CO[C@@H](/C=C/CC/C=C/C(=O)O)[C@@H](O)[C@H](C)/C=C(\C)[C@@H](O)[C@H](C)C(=O)CCCC1CC(=O)NC(=O)C1` [Compound 5, 13-epi-Dorrigocin A] as the compound, how does the “change” value [1] read?
A: no detectable change

Q: Which “survival time of tumor-bearing mice” value [4] does the source give for `C/C(=C\[C@H](C)C(=O)C[C@H](O)CC1CC(=O)NC(=O)C1)[C@@H]1OC(=O)/C=C/CC/C=C/C=C\[C@@H]1C` [Compound 104, lactimidomycin] here?
A: prolonged the survival time

Q: What about the “IC50 value with HCT-116 cells” value [5] of the same compound?
A: 0.0014 µg/mL

Q: For `CO[C@@]12[C@H](COC(N)=O)C3=C(C(=O)C(C)=C(N)C3=O)N1C[C@@H]1N[C@@H]12` [MTM C], which “IC50 value with HCT-116 cells” value [5] is on record?
A: 0.8 µg/mL
